Measured values published in patent US20100331348A1, “TROPANE DERIVATIVES USEFUL AS PESTICIDES” (SYNGENTA CROP PROTECTION, INC., priority 2007, published 2010).
Like-named read-outs stand apart in the source and are kept apart here.

Experiments:
Aedes aegypti = Aedes aegypti (Yellow fever mosquito) larvae test; type: in vivo; conditions: 48 h
[1] = tested on: Puccinia recondita f.sp. tritici; assay: Puccinia recondita f.sp. tritici (wheat brown rust) leaf disk assay; type: in vivo; conditions: foliar, 216 h, preventive, nine days after inoculation, read-out: control of fungal infection, Puccinia recondita f.sp. tritici
Pyricularia oryzae = assay: whole plant or invertebrate; type: in vivo; conditions: foliar, 96 h
[2] = tested on: Erysiphe graminis f.sp. tritici; assay: Erysiphe graminis f.sp. tritici (wheat powdery mildew) leaf disk assay; type: in vivo; conditions: Blumeria graminis, foliar, 96 h, preventive, four days after inoculation, read-out: control of fungal infection, Erysiphe graminis fsp. tritici
Plutella xylostella = Plutella xylostella (Diamond back moth) artificial diet test; conditions: 120 h, read-out: control of Plutella xylostella
[3] = read-out: control of fungal infection, Pyricularia oryzae (at least 60% list)
[4] = read-out: control of fungal infection, Pyricularia oryzae (at least 80% list)

| SMILES | pest or weed control at 200 ppm [1] | pest or weed control at 200 ppm (Pyricularia oryzae; [3]) | pest or weed control at 200 ppm [2] | other results |
| --- | --- | --- | --- | --- |
| Cc1ccc(OC2C[C@H]3CC[C@@H](C2)N3c2ncnc3sccc23)cc1 (stereo partly shown) [Example 1.7] | ≥ 80% | – | – | pest or weed control at 2 ppm (Aedes aegypti): ≥ 80% |
| Clc1cc(Br)ccc1OC1C[C@H]2CC[C@@H](C1)N2c1ncnc2sccc12 (stereo partly shown) [Example 1.28] | – | ≥ 60% | – | – |
| Cc1nn(C)c2nccc(N3[C@@H]4CC[C@H]3CC(Oc3ccc(Cl)cc3)C4)c12 (stereo partly shown) [Example 1.138] | – | ≥ 60% | – | – |
| Fc1ccc(OC2C[C@H]3CC[C@@H](C2)N3c2ncnc3sccc23)cc1F (stereo partly shown) [Example 2.18] | – | ≥ 60% | – | – |
| Fc1ccc(F)c(OC2C[C@H]3CC[C@@H](C2)N3c2ncnc3sccc23)c1 (stereo partly shown) [Example 2.25] | – | ≥ 60% | ≥ 80% | – |
| c1nc(N2[C@@H]3CC[C@H]2CC(Oc2ccc4c(c2)OCO4)C3)c2ccsc2n1 (stereo partly shown) [Example 2.29] | – | – | ≥ 80% | pest or weed control at 2 ppm (Aedes aegypti): ≥ 80% |
| O=C(c1ccccc1)c1ccc(OC2C[C@H]3CC[C@@H](C2)N3c2ncnc3sccc23)cc1 (stereo partly shown) [Example 2.39] | – | ≥ 60% | – | – |
| Fc1ccc(OC2C[C@H]3CC[C@@H](C2)N3c2ncnc3sccc23)cc1C(F)(F)F (stereo partly shown) [Example 2.52] | – | ≥ 60% | – | – |
| FC(F)(F)c1cccc(OC2C[C@H]3CC[C@@H](C2)N3c2ncnc3sccc23)n1 (stereo partly shown) [Example 2.60] | ≥ 80% | ≥ 60% | ≥ 80% | – |
| O=c1oc2cc(OC3C[C@H]4CC[C@@H](C3)N4c3ncnc4sccc34)ccc2s1 (stereo partly shown) [Example 2.69] | – | ≥ 60% | – | – |
| Cc1csc2c(N3[C@@H]4CC[C@H]3CC(Oc3ccc(C(F)(F)F)cn3)C4)ncnc12 (stereo partly shown) [Example 2.81] | – | ≥ 60% | – | – |
| FC(F)(F)c1ccnc(OC2C[C@H]3CC[C@@H](C2)N3c2ncnc3ccccc23)c1 (stereo partly shown) [Example 2.84] | ≥ 80% | ≥ 60% | ≥ 80% | – |
| CSc1nccc(N2[C@@H]3CC[C@H]2CC(Oc2cccc(C(F)(F)F)n2)C3)n1 (stereo partly shown) [Example 2.98] | – | ≥ 60% | – | – |
| CCc1ncnc(N2[C@@H]3CC[C@H]2CC(Oc2ccc4c(c2)OCO4)C3)c1Cl (stereo partly shown) [Example 2.138] | – | – | – | pest or weed control at 2 ppm (Aedes aegypti): ≥ 80% |
| CCc1ncnc(N2[C@@H]3CC[C@H]2CC(Oc2ccc(C(C)C)cc2)C3)c1Cl (stereo partly shown) [Example 2.143] | – | – | – | pest or weed control at 200 ppm (Plutella xylostella): ≥ 80% |
| CCc1ncnc(N2[C@@H]3CC[C@H]2CC(Oc2c(F)c(F)c(F)c(F)c2F)C3)c1Cl (stereo partly shown) [Example 2.150] | – | – | – | pest or weed control at 2 ppm (Aedes aegypti): ≥ 80% |
| Cc1nn(C)c2nccc(N3[C@@H]4CC[C@H]3CC(Oc3ccc(Oc5ccc(C(F)(F)F)cn5)cc3)C4)c12 (stereo partly shown) [Example 2.160] | – | ≥ 60% | – | – |
| CCc1ncnc(N2[C@@H]3CC[C@H]2CC(Oc2ccc4sc(=O)oc4c2)C3)c1Cl (stereo partly shown) [Example 2.177] | – | ≥ 60% | – | – |
| FC(F)(F)c1ccnc(OC2C[C@H]3CC[C@@H](C2)N3c2ccnc3c(Cl)cccc23)c1 (stereo partly shown) [Example 2.195] | – | ≥ 60% | – | – |

| SMILES | pest or weed control at 200 ppm [1] | pest or weed control at 200 ppm (Pyricularia oryzae; [3]) | pest or weed control at 200 ppm [2] | other results |
| --- | --- | --- | --- | --- |
| Cn1cc(C(=O)N2[C@@H]3CC[C@H]2CC(Oc2cc(C(F)(F)F)ccn2)C3)c(C(F)(F)F)c1 (stereo partly shown) [Example 2.219] | – | ≥ 60% | – | – |
| Cn1cc(C(=O)N2[C@@H]3CC[C@H]2CC(Oc2cccc(C(F)(F)F)n2)C3)c(C(F)(F)F)c1 (stereo partly shown) [Example 2.221] | – | ≥ 60% | – | – |
| CCc1ncnc(N2C3CCC2CC(=CC(=O)Nc2ccc(Cl)cc2)C3)c1Cl [Example 3.11] | ≥ 80% | ≥ 60% | – | – |
| COc1cc(OCC=C2CC3CCC(C2)N3c2ncnc3sccc23)ccc1Cl [Example 3.24] | ≥ 80% | – | – | pest or weed control at 200 ppm (Pyricularia oryzae; [4]): ≥ 80% |
| COC(=O)C=C1CC2CCC(C1)N2c1ncnc2sccc12 [Example 3.28] | ≥ 80% | – | – | pest or weed control at 2 ppm (Aedes aegypti): ≥ 80%; pest or weed control at 200 ppm (Pyricularia oryzae; [4]): ≥ 80% |
| CCCNC(=O)C=C1CC2CCC(C1)N2c1ncnc2sccc12 [Example 3.31] | ≥ 80% | – | – | pest or weed control at 200 ppm (Pyricularia oryzae; [4]): ≥ 80% |
| CCCCNC1C[C@H]2CC[C@@H](C1)N2c1ncnc2sccc12 (stereo partly shown) [Example 4.9] | – | – | – | pest or weed control at 200 ppm (Pyricularia oryzae; [4]): ≥ 80% |
| c1ccc(CNC2C[C@H]3CC[C@@H](C2)N3c2ncnc3sccc23)cc1 (stereo partly shown) [Example 4.10] | – | – | – | pest or weed control at 200 ppm (Pyricularia oryzae; [4]): ≥ 80% |
| CCc1ncnc(N2C3CCC2CC(=NOCc2cccc(OC)c2)C3)c1Cl [Example 5.15] | ≥ 80% | – | ≥ 80% | pest or weed control at 2 ppm (Aedes aegypti): ≥ 80% |
| CCc1ncnc(N2C3CCC2CC(=NOCc2cccnc2)C3)c1Cl [Example 5.25] | – | – | ≥ 80% | pest or weed control at 2 ppm (Aedes aegypti): ≥ 80% |
| CCc1ncnc(N2C3CCC2CC(=NOCc2ccccc2C#N)C3)c1Cl [Example 5.38] | ≥ 80% | ≥ 60% | ≥ 80% | pest or weed control at 2 ppm (Aedes aegypti): ≥ 80% |
| CCc1ncnc(N2C3CCC2CC(=NOCc2cc(F)cc(F)c2)C3)c1Cl [Example 5.57] | ≥ 80% | – | ≥ 80% | pest or weed control at 200 ppm (Pyricularia oryzae; [4]): ≥ 80% |
| CCc1ncnc(N2C3CCC2CC(=NOCc2c(F)cccc2Cl)C3)c1Cl [Example 5.90] | ≥ 80% | – | ≥ 80% | pest or weed control at 2 ppm (Aedes aegypti): ≥ 80% |
| CCc1ncnc(N2C3CCC2CC(=NOCc2ccc(-c4nnn(CC)n4)cc2)C3)c1Cl [Example 5.112] | ≥ 80% | – | ≥ 80% | pest or weed control at 2 ppm (Aedes aegypti): ≥ 80% |
| CCc1ncnc(C(C)c2ncnc(N3C4CCC3CC(=NOc3ncc(C(F)(F)F)cc3Cl)C4)c2Cl)c1Cl (stereo not shown) [Example 5.124] | – | ≥ 60% | – | – |
| c1cc(CON=C2CC3CCC(C2)N3c2ncnc3sccc23)ccn1 [Example 5.131] | – | – | ≥ 80% | pest or weed control at 2 ppm (Aedes aegypti): ≥ 80% |
| Clc1cccc(Cl)c1CON=C1CC2CCC(C1)N2c1ncnc2sccc12 [Example 5.144] | ≥ 80% | – | ≥ 80% | pest or weed control at 2 ppm (Aedes aegypti): ≥ 80%; pest or weed control at 200 ppm (Pyricularia oryzae; [4]): ≥ 80% |
| Cc1cc(C)cc(CON=C2CC3CCC(C2)N3c2ncnc3sccc23)c1 [Example 5.156] | ≥ 80% | ≥ 60% | ≥ 80% | – |
| c1ccc(Oc2cccc(CON=C3CC4CCC(C3)N4c3ncnc4sccc34)c2)cc1 [Example 5.173] | ≥ 80% | ≥ 60% | ≥ 80% | pest or weed control at 200 ppm (Pyricularia oryzae; [4]): ≥ 80% |

| SMILES | pest or weed control at 200 ppm [1] | pest or weed control at 200 ppm (Pyricularia oryzae; [3]) | pest or weed control at 200 ppm [2] | other results |
| --- | --- | --- | --- | --- |
| CCCCOCON=C1CC2CCC(C1)N2c1ncnc2sccc12 [Example 5.178] | ≥ 80% | ≥ 60% | ≥ 80% | – |
| Fc1cccc(CON=C2CC3CCC(C2)N3c2ncnc3sccc23)c1 [Example 5.183] | ≥ 80% | – | ≥ 80% | pest or weed control at 2 ppm (Aedes aegypti): ≥ 80% |
| FC(F)Oc1ccccc1CON=C1CC2CCC(C1)N2c1ncnc2sccc12 [Example 5.202] | ≥ 80% | ≥ 60% | ≥ 80% | pest or weed control at 2 ppm (Aedes aegypti): ≥ 80% |
| Cc1ccc(C)c(CON=C2CC3CCC(C2)N3c2ncnc3sccc23)c1 [Example 5.203] | ≥ 80% | ≥ 60% | ≥ 80% | – |
| Fc1cc(CON=C2CC3CCC(C2)N3c2ncnc3sccc23)cc(F)c1F [Example 5.208] | ≥ 80% | – | ≥ 80% | – |
| FC(F)(F)Oc1cccc(CON=C2CC3CCC(C2)N3c2ncnc3sccc23)c1 [Example 5.212] | ≥ 80% | ≥ 60% | ≥ 80% | – |
| Fc1c(F)c(F)c(CON=C2CC3CCC(C2)N3c2ncnc3sccc23)c(F)c1F [Example 5.225] | ≥ 80% | – | ≥ 80% | – |
| FC(F)(F)Sc1ccc(CON=C2CC3CCC(C2)N3c2ncnc3sccc23)cc1 [Example 5.230] | ≥ 80% | – | ≥ 80% | – |
| Fc1ccc(C(F)(F)F)c(CON=C2CC3CCC(C2)N3c2ncnc3sccc23)c1 [Example 5.234] | ≥ 80% | – | ≥ 80% | pest or weed control at 200 ppm (Pyricularia oryzae; [4]): ≥ 80% |
| Cc1nc(ON=C2CC3CCC(C2)N3c2ncnc3sccc23)cc(-c2ccccc2)n1 [Example 5.236] | – | ≥ 60% | – | – |
| FC(F)(F)Sc1cccc(CON=C2CC3CCC(C2)N3c2ncnc3sccc23)c1 [Example 5.239] | ≥ 80% | – | ≥ 80% | pest or weed control at 200 ppm (Pyricularia oryzae; [4]): ≥ 80% |
| CCn1nnc(-c2ccc(CON=C3CC4CCC(C3)N4c3ncnc4sccc34)cc2)n1 [Example 5.247] | ≥ 80% | – | ≥ 80% | – |
| Cc1nn(C)c2nccc(N3C4CCC3CC(=NOCc3ccc(Cl)cc3)C4)c12 [Example 5.256] | ≥ 80% | ≥ 60% | ≥ 80% | – |
| Fc1cc2c(c(CON=C3CC4CCC(C3)N4c3ncnc4sccc34)c1)OCOC2 [Example 5.257] | ≥ 80% | – | ≥ 80% | – |
| OC1(Cc2ccccc2)CC2CCC(C1)N2c1ncnc2sccc12 (stereo not shown) [Example 7.14] | – | – | – | pest or weed control at 200 ppm (Pyricularia oryzae; [4]): ≥ 80% |
| CC(C)(C)c1csc(CC2CC3CCC(C2)N3c2ncnc3sccc23)n1 (stereo not shown) [Example 7.17] | – | ≥ 60% | – | pest or weed control at 200 ppm (Pyricularia oryzae; [4]): ≥ 80% |
| FC(F)(F)C(F)(F)c1csc(CC2CC3CCC(C2)N3c2ncnc3sccc23)n1 (stereo not shown) [Example 7.20] | ≥ 80% | ≥ 60% | – | – |
| CCc1ncnc(N2C3CCC2CC(CC(=O)Nc2ccc(Cl)cc2)C3)c1Cl (stereo not shown) [Example 7.22] | ≥ 80% | ≥ 60% | – | pest or weed control at 200 ppm (Pyricularia oryzae; [4]): ≥ 80% |
